According to patent publication US20260335323A1, “CHIMERIC MOLECULE” (UCL Business Ltd, priority 2023, published 2026):

Tests used:
LC3 [1] = test: ATP5a/LC3 co-localisation immunofluorescence in MEF WT; assay type: cell-based, mouse
Protocol: (§1) FIG. 6. ULKTACs rely on ULK1 for the redirection of autophagy components to mitochondria and subsequent mitophagic degradation (A) Western blot of mouse embryonic fibroblasts (MEF) WT and MEF ULK1/2^−/− treated with 1 mM ULKTACs, 5 mM CCCP or both and probed for ULK1, Mfn2 and Actin—quantification of the relative intensity of Mfn2 shown in (B), normalised to Actin. Representative immunofluorescence of MEF WT (C) and MEF ULK1/2^−/− (D) treated with 5 mM CCCP, 1 mM ULKTACs or both and immunostained for Alexa 488 ATP5a and Alexa 647 LC3B. Quantification of the colocalised LC3 to ATP5a spot area shown in WT vs ULK1/2^−/− treated MEF cells shown in (E). Data shown are mean±SEM, n=3, *p<0.05, ** p<0.01, *** p<0.001, Two-way ANOVA with Tukey's multiple comparisons test.
(§2) For TOM20/ULK1 immunofluorescence, cells were seeded in a 384 well PerkinElmer CellCarrier Ultra plate 24 hours prior to treatment with compounds. Cells were treated for 18 hours after which they were fixed with 4% paraformaldehyde (PFA) in phosphate buffered saline (PBS) and blocked with 10% FBS and 0.1% Triton in PBS. Plates were incubated at 4° C. overnight, with 1:400 mouse anti-TOM20 (Santa Cruz, #sc-17764) and 1:400 rabbit anti-ULK1 (Cell Signalling Technologies, #0854). […]

LC3 [2] = test: ATP5a/LC3 co-localisation immunofluorescence in MEF ULK1/2-/-; assay type: cell-based, mouse; conditions: ULK1/2-/- cells
Protocol: as §1, §2

c-MYC = test: Western blot, c-MYC levels in CAL51 cells; assay type: cell-based, human; conditions: 100 nM, 72 hours
Protocol: All treatments with (+)-JQ1, NZ-147 or NZ-175 were performed at 100 nM concentration over 72 hours.
Cells were homogenised in protein lysis buffer consisting of 0.1 M Tris pH 8.0, 0.1 M NaCl, 5% glycerol, IGEPAL® CA-630 (#18896. Sigma-Aldrich) and 5 mM EDTA, 0.1 M N-ethyl maleimide (ThermoFisher, #23030) and protease inhibitor (Cell Signalling Technologies, #5871). Protein concentrations were determined using the BCA assay to ensure equal loading. […] The membranes were immunoblotted with primary antibodies, overnight at 4° C. […]
Membranes were then incubated with horseradish peroxidase (HRP)-conjugated secondary antibodies (Rabbit #7074 and Mouse #7076) purchased from Cell Signalling Technologies for 1 hour and the HRP signal was detected using EZ-ECL Enhanced Chemiluminescence Detection Kit for HRP (#20-500-500, Sartorius), and imaged with an Alliance Q9 Advanced (UVITec). […]
We generated a BRD4-ULKTAC (NZ-147) by conjugating (+)-JQ1 (BRD4-targeting moiety) to NZ-60 via a PEG linker (FIG. 8A). CAL51 cells (a triple negative breast cancer cell line) were treated with DMSO, (+)-JQ1 or NZ-147 at 100 nM for 72 hours then lysed and analysed by Western blot (FIG. 8B). […]

O=C(Nc1cc(C(F)(F)F)cc(C(F)(F)F)c1)N[C@@H](C(=O)Nc1ccc(F)cc1F)c1ccc(OCc2cn(CCOCCOCCNC(=O)C(=O)c3c(-c4ccccc4)[nH]c4ccccc34)nn2)cc1 [NZ-65, (R)-2-(3-(3,5-bis(trifluoromethyl)phenyl)ureido)-N-(2,4-difluorophenyl)-2-(4-((1-(2-(2-(2-(2-oxo-2-(2-phenyl-1H-indol-3-yl)acetamido)ethoxy)ethoxy)ethyl)-1H-1,2,3-triazol-4-yl)methoxy)phenyl) acetamide]
co-localisation of ATP5a with LC3 (LC3 [1]): increase in co-localisation
co-localisation of ATP5a with LC3 (LC3 [2]): absent

O=C(Nc1cc(C(F)(F)F)cc(C(F)(F)F)c1)N[C@@H](C(=O)Nc1ccc(F)cc1F)c1ccc(OCc2cn(CCCCCCNC(=O)C(=O)c3c(-c4ccccc4)[nH]c4ccccc34)nn2)cc1 [NZ-66, (R)-2-(3-(3,5-bis(trifluoromethyl)phenyl)ureido)-N-(2,4-difluorophenyl)-2-(4-((1-(6-(2-oxo-2-(2-phenyl-1H-indol-3-yl)acetamido)hexyl)-1H-1,2,3-triazol-4-yl)methoxy)phenyl) acetamide]
co-localisation of ATP5a with LC3 (LC3 [1]): increase in co-localisation
co-localisation of ATP5a with LC3 (LC3 [2]): absent

Cc1sc2c(c1C)C(c1ccc(Cl)cc1)=N[C@@H](CC(=O)NCCOCCOCCOCCn1cc(COc3ccc([C@@H](NC(=O)Nc4cc(C(F)(F)F)cc(C(F)(F)F)c4)C(=O)Nc4ccc(F)cc4F)cc3)nn1)c1nnc(C)n1-2 [NZ-147, (R)-2-(3-(3,5-bis(trifluoromethyl)phenyl)ureido)-2-(4-((1-(1-((S)-4-(4-chlorophenyl)-2,3,9-trimethyl-6H-thieno[3,2-f][1,2,4]triazolo[4,3-a][1,4]diazepin-6-yl)-2-oxo-6,9, 12-trioxa-3-azatetradecan-14-yl)-1H-1,2,3-triazol-4-yl)methoxy)phenyl)-N-(2,4-difluorophenyl) acetamide]
levels of c-MYC (c-MYC): reduced
